Laboratory results published in patent US20210395249A1, “NEW ALKOXYAMINOPYRIDINE DERIVATIVES FOR TREATING PAIN AND PAIN RELATED CONDITIONS” (ESTEVE PHARMACEUTICALS, S.A., priority 2018, published 2021).

How the values were obtained:
[1] = molecular target: Human α2δ-1 subunit of Cav2.2 calcium channel (Homo sapiens, UniProt P54289); assay: Binding assay to human α2δ-1 subunit of Cav2.2 calcium channel ([3H]-Gabapentin); conditions: human α2δ-1 enriched membranes, [3H]-Gabapentin 15 nM; read-out: Ki(nM) alpha2delta Hum
Procedure: Binding Assay to Human α2δ-1 Subunit of Cav2.2 Calcium Channel
Human α2δ-1 enriched membranes (2.5 μg) were incubated with 15 nM of radiolabeled [3H]-Gabapentin in assay buffer containing Hepes-KOH 10 mM, pH 7.4. NSB (non-specific binding) was measured by adding 10 μM pregabalin. The binding of the test compound was measured at either one concentration (% inhibition at 1 or 10 μM) or five different concentrations to determine affinity values (Ki). After 60 min incubation at 27° C., binding reaction was terminated by filtering through Multiscreen GF/C (Millipore) presoaked in 0.5% polyethyleneimine in Vacuum Manifold Station, followed by 3 washes with ice-cold filtration buffer containing 50 mM Tris-HCl, pH 7.4. Filter plates were dried at 60° C. for 1 hour and 30 μl of scintillation cocktail were added to each well before radioactivity reading. Readings were performed in a Trilux 1460 Microbeta radioactive counter (Perkin Elmer).

[2] = molecular target: Human norepinephrine transporter (NET) (Homo sapiens, UniProt P23975); assay: Binding assay to human norepinephrine transporter (NET) ([3H]-Nisoxetin); conditions: human NET enriched membranes, [3H]-Nisoxetin 5 nM; read-out: Ki(nM) NET Hum
Procedure: Binding Assay to Human Norepinephrine Transporter (NET)
Human norepinephrine transporter (NET) enriched membranes (5 μg) were incubated with 5 nM of radiolabeled [3H]-Nisoxetin in assay buffer containing 50 mM Tris-HCl, 120 mM NaCl, 5 mM KCl, pH 7.4. NSB (non specific binding) was measured by adding 10 μM of desipramine. The binding of the test compound was measured at either one concentration (% inhibition at 1 or 10 μM) or five different concentrations to determine affinity values (Ki). After 60 min incubation at 4° C., binding reaction was terminated by filtering through Multiscreen GF/C (Millipore) presoaked in 0.5% polyethyleneimine in Vacuum Manifold Station, followed by 3 washes with ice-cold filtration buffer containing 50 mM Tris-HCl, 0.9% NaCl, pH 7.4. Filter plates were dried at 60° C. for 1 hour and 30 μl of scintillation cocktail were added to each well before radioactivity reading. Readings were performed in a Trilux 1450 Microbeta radioactive counter (Perkin Elmer).

Sequence of Human α2δ-1 subunit of Cav2.2 calcium channel (P54289 25-1103): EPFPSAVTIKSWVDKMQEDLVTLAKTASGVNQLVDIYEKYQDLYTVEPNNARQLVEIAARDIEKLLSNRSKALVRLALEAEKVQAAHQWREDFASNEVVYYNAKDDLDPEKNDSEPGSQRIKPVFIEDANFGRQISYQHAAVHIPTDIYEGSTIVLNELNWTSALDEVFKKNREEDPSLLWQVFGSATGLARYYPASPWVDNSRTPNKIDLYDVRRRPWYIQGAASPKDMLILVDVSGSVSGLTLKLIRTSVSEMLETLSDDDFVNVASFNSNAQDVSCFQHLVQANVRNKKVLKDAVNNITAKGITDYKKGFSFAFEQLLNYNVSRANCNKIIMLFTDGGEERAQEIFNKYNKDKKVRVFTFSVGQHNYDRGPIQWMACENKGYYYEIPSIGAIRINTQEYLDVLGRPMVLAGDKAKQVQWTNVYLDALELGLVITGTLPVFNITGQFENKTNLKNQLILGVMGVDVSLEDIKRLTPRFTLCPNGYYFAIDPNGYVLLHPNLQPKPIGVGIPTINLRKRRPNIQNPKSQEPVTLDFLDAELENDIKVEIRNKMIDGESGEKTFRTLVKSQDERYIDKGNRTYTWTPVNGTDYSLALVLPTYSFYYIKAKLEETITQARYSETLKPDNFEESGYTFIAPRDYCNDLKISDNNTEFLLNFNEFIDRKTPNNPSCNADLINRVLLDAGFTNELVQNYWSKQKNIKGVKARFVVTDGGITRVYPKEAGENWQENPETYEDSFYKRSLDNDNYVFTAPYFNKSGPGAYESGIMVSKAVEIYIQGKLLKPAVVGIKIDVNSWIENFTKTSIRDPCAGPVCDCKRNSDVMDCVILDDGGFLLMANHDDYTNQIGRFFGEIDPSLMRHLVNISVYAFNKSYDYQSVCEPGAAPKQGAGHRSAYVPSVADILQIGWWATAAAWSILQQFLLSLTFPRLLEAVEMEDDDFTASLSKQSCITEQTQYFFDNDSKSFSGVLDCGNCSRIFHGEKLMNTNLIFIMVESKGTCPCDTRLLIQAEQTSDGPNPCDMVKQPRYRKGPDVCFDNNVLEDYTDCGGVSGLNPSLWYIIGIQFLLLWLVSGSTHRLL
Sequence of Human norepinephrine transporter (NET) (P23975 whole entry): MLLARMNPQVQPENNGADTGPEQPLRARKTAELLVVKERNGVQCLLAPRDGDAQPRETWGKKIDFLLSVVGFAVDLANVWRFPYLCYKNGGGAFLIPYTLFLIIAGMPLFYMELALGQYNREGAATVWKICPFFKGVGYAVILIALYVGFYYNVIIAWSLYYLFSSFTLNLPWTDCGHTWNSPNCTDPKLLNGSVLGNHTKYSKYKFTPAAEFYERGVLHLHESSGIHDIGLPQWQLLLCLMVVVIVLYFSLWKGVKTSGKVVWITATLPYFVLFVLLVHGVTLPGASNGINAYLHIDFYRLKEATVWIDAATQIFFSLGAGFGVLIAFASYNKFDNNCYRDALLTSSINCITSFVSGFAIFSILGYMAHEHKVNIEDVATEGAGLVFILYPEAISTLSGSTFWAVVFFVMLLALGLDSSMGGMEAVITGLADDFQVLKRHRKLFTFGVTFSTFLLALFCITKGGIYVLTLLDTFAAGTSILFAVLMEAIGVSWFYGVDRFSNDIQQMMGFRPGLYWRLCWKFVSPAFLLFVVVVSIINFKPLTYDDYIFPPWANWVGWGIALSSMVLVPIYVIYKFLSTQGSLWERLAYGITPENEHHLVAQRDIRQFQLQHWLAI

Compound	Ki [1] [nM]	Ki [2] [nM]
CNCC[C@H](Oc1cnc(CN2CCN(C)c3ncccc3C2=O)c(F)c1)c1ccccc1 [Example 1, (S)-4-((3-Fluoro-5-(3-(methylamino)-1-phenylpropoxy)pyridin-2-yl)methyl)-1-methyl-1,2,3,4-tetrahydro-5H-pyrido[2,3-e][1,4]diazepin-5-one]	< 100	< 100
CNCC[C@H](Oc1cnc(CN2CCN(C)c3ncc(F)cc3C2=O)c(F)c1)c1cccc(F)c1 [Example 2, (S)-7-fluoro-4-((3-fluoro-5-(1-(3-fluorophenyl)-3-(methylamino)propoxy)pyridin-2-yl)methyl)-1-methyl-1,2,3,4-tetrahydro-5H-pyrido[2,3-e][1,4]diazepin-5-one]	100 to 500	< 100
CNCC[C@H](Oc1cnc(CN2CCN(C)c3nc(N)ccc3C2=O)c(F)c1)c1cccc(F)c1 [Example 3, (S)-8-amino-4-((3-fluoro-5-(1-(3-fluorophenyl)-3-(methylamino)propoxy)pyridin-2-yl)methyl)-1-methyl-1,2,3,4-tetrahydro-5H-pyrido[2,3-e][1,4]diazepin-5-one]	< 100	< 100
CCNc1ccc2c(n1)N(C)CCN(Cc1ncc(O[C@@H](CCNC)c3cccc(F)c3)cc1F)C2=O [Example 4, (S)-8-(ethylamino)-4-((3-fluoro-5-(1-(3-fluorophenyl)-3-(methylamino)propoxy)pyridin-2-yl)methyl)-1-methyl-1,2,3,4-tetrahydro-5H-pyrido[2,3-e][1,4]diazepin-5-one]	< 100	< 100
CNCC[C@H](Oc1cnc(CN2CCN(C)c3ncccc3C2=O)c(Cl)c1)c1cccc(F)c1 [Example 5, (S)-4-((3-chloro-5-(1-(3-fluorophenyl)-3-(methylamino)propoxy)pyridin-2-yl)methyl)-1-methyl-1,2,3,4-tetrahydro-5H-pyrido[2,3-e][1,4]diazapin-5-one]	< 100	< 100
CNCC[C@H](Oc1cnc(CN2CCN(C)c3cnc(OC)cc3C2=O)c(F)c1)c1cccc(F)c1 [Example 6, (S)-4-((3-fluoro-5-(1-(3-fluorophenyl)-3-(methylamino)propoxy)pyridin-2-yl)methyl)-7-methoxy-1-methyl-1,2,3,4-tetrahydro-5H-pyrido[3,4-e][1,4]diazepin-5-one]	< 100	< 100
CNCC[C@H](Oc1cnc(CN2CCN(C)c3ncccc3C2=O)c(F)c1)c1cccc(F)c1 [Example 7, (S)-4-((3-fluoro-5-(1-(3-fluorophenyl)-3-(methylamino)propoxy)pyridin-2-yl)methyl)-1-methyl-1,2,3,4-tetrahydro-5H-pyrido[2,3-e][1,4]diazepin-5-one]	100 to 500	< 100
CNCC[C@H](Oc1cnc(CN2CCN(C)c3ncccc3C2=O)c(F)c1)c1cccs1 [Example 8, (S)-4-((3-Fluoro-5-(3-(methylamino)-1-(thiophen-2-yl)propoxy)pyridin-2-yl)methyl)-1-methyl-1,2,3,4-tetrahydro-5H-pyrido[2,3-e][1,4]diazepin-5-one]	100 to 500	< 100
